For this test, the system named is MCH receptors. Nature of the test: MCH receptor activity class (method not given).
The mark [1] stands for this setting: class by percent of control at 10^-7 M or IC50.
Setting [2] is: class by percent of control at 10^−7 M or IC50.
The mark [3] stands for this setting: MCH receptor, class by percent of control at 10^-7 M or IC50.

Drawing on patent publication US20050197350A1, “Novel quinoline, tetrahydroquinazoline, and pyrimidine derivatives and methods of treatment related to the use thereof” (TAISHO PHARMACEUTICAL CO., LTD., priority 2003, published 2005), this text covers class for 25 compounds.

As for `CC(NC(=O)N[C@H]1CC[C@@H](Nc2cc(N(C)C)c3ccccc3n2)CC1)c1cccc2ccccc12` (relative stereo) [compound 2134], under setting [1], the class is reported as 1 (Class 1: The value of percent of control at 10^−7 M was less than 40% or the value of IC50 was less than 50 nM.).
Take `COc1cc(OC)cc(C(=O)N[C@H]2CC[C@@H](CNc3ncc(C)c(N(C)C)n3)CC2)c1` [compound 2716, N-[cis-4-({[4-(dimethylamino)-5-methylpyrimidin-2-yl]amino}methyl)cyclohexyl]-3,5-dimethoxybenzamide]: under setting [2], the class is 2 (Class 2: The value of percent of control at 10^−7 M was from 40% to 60% or the value of IC′50 was from 50 nM to 200 nM.).
For `CCCN(CCC)C(=O)[C@H](CCC(=O)N[C@H]1CC[C@@H](Nc2nccc(N(C)C)n2)CC1)NC(=O)c1ccccc1` (relative stereo) [compound 870], under setting [1], the class is listed as 2 (Class 2: The value of percent of control at 10^−7 M was from 40% to 60% or the value of IC′50 was from 50 nM to 200 nM.).
Regarding `CSc1ccc(NC(=O)NC[C@H]2CC[C@@H](Nc3cc(N(C)C)c4ccccc4n3)CC2)cc1` [compound 2365], the class (MCH receptor activity class 1-3 (percent of control at 10^-7 M or IC50)) is recorded as 3 (Class 3 The value of percent of control at 10^−7 M was more than 60% or the value of IC50 was more than 200 nM.).
Regarding `CCc1cccc(NC(=O)N[C@H]2CC[C@@H](Nc3nc4c(c(N(C)C)n3)CCCC4)CC2)c1` [compound 1871], the class under setting [1] was 3 (Class 3 The value of percent of control at 10^−7 M was more than 60% or the value of IC50 was more than 200 nM.).
For the compound `CN(C)c1cc(N[C@H]2CC[C@@H](NC(=O)/C=C/c3ccc([N+](=O)[O-])cc3)CC2)nc2ccccc12` [compound 79], the class under setting [3] is on record as 3 (Class 3 The value of percent of control at 10^−7 M was more than 60% or the value of IC50 was more than 200 nM.).
For the compound `Cc1cc(Cl)ccc1NC(=O)N[C@H]1CC[C@@H](Nc2nc3c(c(N(C)C)n2)CCCC3)CC1` [compound 1724, N-(4-chloro-2-methylphenyl)-N′-(cis-4-{[4-(dimethylamino)-5,6,7,8-tetrahydroquinazolin-2-yl]amino}cyclohexyl)urea], the class under setting [1] is listed as 2 (Class 2: The value of percent of control at 10^−7 M was from 40% to 60% or the value of IC′50 was from 50 nM to 200 nM.).
For `Cc1cc(Br)ccc1NC(=O)N[C@H]1CC[C@@H](Nc2nc3c(c(N(C)C)n2)CCCC3)CC1` [compound 1729, N-(4-bromo-2-methylphenyl)-N′-(cis-4-{[4-(dimethylamino)-5,6,7,8-tetrahydroquinazolin-2-yl]amino}cyclohexyl)urea], under setting [1], the class was 2 (Class 2: The value of percent of control at 10^−7 M was from 40% to 60% or the value of IC′50 was from 50 nM to 200 nM.).
`Cc1cc(C(=O)N[C@H]2CC[C@@H](CNc3ncc(C)c(N(C)C)n3)CC2)ccc1Br` [compound 2725, 4-bromo-N-[cis-4-({[4-(dimethylamino)-5-methylpyrimidin-2-yl]amino}methyl)cyclohexyl]-3-methylbenzamide]: the class under setting [2] is recorded as 2 (Class 2: The value of percent of control at 10^−7 M was from 40% to 60% or the value of IC′50 was from 50 nM to 200 nM.).
As to `Cc1cccc(NC(=S)N[C@H]2CC[C@@H](Nc3nc4c(c(N(C)C)n3)CCCC4)CC2)c1` [compound 1947], the class under setting [3] is listed as 3 (Class 3 The value of percent of control at 10^−7 M was more than 60% or the value of IC50 was more than 200 nM.).
As to `COc1ccc2c(c1)C(CC(=O)N[C@H]1CC[C@@H](Nc3nccc(N(C)C)n3)CC1)CC2=O` (relative stereo) [compound 852], the class under setting [1] is listed as 3 (Class 3 The value of percent of control at 10^−7 M was more than 60% or the value of IC50 was more than 200 nM.).
Still for that read-out and setting: the value for `Cc1cccc(C)c1NC(=S)N[C@H]1CC[C@@H](Nc2nccc(N(C)C)n2)CC1` [compound 2261] was 3 (Class 3 The value of percent of control at 10^−7 M was more than 60% or the value of IC50 was more than 200 nM.).
Take `CN(C)c1nc(N[C@H]2CC[C@@H](NC(=O)Nc3ccc(SC(F)(F)F)cc3)CC2)nc2c1CCCC2` [compound 1879]: under setting [1], the class was 3 (Class 3 The value of percent of control at 10^−7 M was more than 60% or the value of IC50 was more than 200 nM.).
On to `CCOc1cc(CN[C@H]2CC[C@@H](Nc3nc4c(c(N(C)C)n3)CCCC4)CC2)ccc1OC` [compound 1338], for which the class under setting [1] is given as 3 (Class 3 The value of percent of control at 10^−7 M was more than 60% or the value of IC50 was more than 200 nM.).
`CN(C)c1cc(N[C@H]2CC[C@@H](NC(=O)c3cc(C(C)(C)C)nn3Cc3ccc(Cl)cc3Cl)CC2)nc2ccccc12` [compound 142]: the class under setting [3] was 3 (Class 3 The value of percent of control at 10^−7 M was more than 60% or the value of IC50 was more than 200 nM.).
Regarding `CN(C)c1cc(N[C@H]2CC[C@@H](NC(=O)NCc3ccc(Cl)cc3Cl)CC2)nc2ccccc12` [compound 2140], under setting [1], the class is on record as 3 (Class 3 The value of percent of control at 10^−7 M was more than 60% or the value of IC50 was more than 200 nM.).
On the same count and under the same terms, the value for `CCOc1ccc(NC(=O)N[C@H]2CC[C@@H](Nc3nc4c(c(N(C)C)n3)CCCC4)CC2)cc1` [compound 1888] was 3 (Class 3 The value of percent of control at 10^−7 M was more than 60% or the value of IC50 was more than 200 nM.).
As for `CN(C)c1ccnc(N[C@H]2CC[C@@H](CNC(=O)Cc3csc4ccccc34)CC2)n1` [compound 948], the class under setting [1] was 1 (Class 1: The value of percent of control at 10^−7 M was less than 40% or the value of IC50 was less than 50 nM.).
In the case of `CN(C)c1nc(N[C@H]2CC[C@@H](NC(=O)C3CCCC[C@H]3C(=O)c3ccccc3)CC2)nc2c1CCCC2` (stereo partly shown) [compound 969], under setting [1], the class is recorded as 3 (Class 3 The value of percent of control at 10^−7 M was more than 60% or the value of IC50 was more than 200 nM.).
For `CCc1cccc(C(C)C)c1NC(=O)N[C@H]1CC[C@@H](Nc2cc(N(C)C)c3ccccc3n2)CC1` [compound 2106, N-(cis-4-{[4-(dimethylamino)quinolin-2-yl]amino}cyclohexyl)-N′-(2-ethyl-6-isopropylphenyl)urea], the class under setting [1] is 2 (Class 2: The value of percent of control at 10^−7 M was from 40% to 60% or the value of IC′50 was from 50 nM to 200 nM.).
Take `COc1cc(OC)cc(C(=O)NC[C@H]2CC[C@@H](Nc3nc(C)cc(N(C)C)n3)CC2)c1` [compound 2711]: the class under setting [2] is on record as 2 (Class 2: The value of percent of control at 10^−7 M was from 40% to 60% or the value of IC′50 was from 50 nM to 200 nM.).
For `CN(C)c1ccnc(N[C@H]2CC[C@@H](CNCc3ccc(Cl)cc3)CC2)n1` [compound 1270], the class under setting [1] is 3 (Class 3 The value of percent of control at 10^−7 M was more than 60% or the value of IC50 was more than 200 nM.).
Take `CN(C)c1nc(N[C@H]2CC[C@@H](CNC(=O)Oc3ccccc3)CC2)nc2c1CCCC2` [compound 1612]: the class (activity class 1-3: percent of control at 10^-7 M or IC50) is recorded as 3 (Class 3 The value of percent of control at 10^−7 M was more than 60% or the value of IC50 was more than 200 nM.).
With `CN(C)c1nc(N[C@H]2CC[C@@H](NC(=O)c3ccc(-c4ccc(Cl)cc4)o3)CC2)nc2c1CCCC2` [compound 973], the class under setting [1] was 1 (Class 1: The value of percent of control at 10^−7 M was less than 40% or the value of IC50 was less than 50 nM.).
On the same count and under the same terms, next, `CN(C)c1cc(N[C@H]2CC[C@@H](CNC(=O)CCc3ccccc3O)CC2)nc2ccccc12` [compound 794]: 3 (Class 3 The value of percent of control at 10^−7 M was more than 60% or the value of IC50 was more than 200 nM.).
